Test results published in patent US9458128B2, “Catechol O-methyltransferase activity inhibiting compounds” (Orion Corporation, priority 2012, dated 2016).

Tests used:
[1] = Determination of levodopa concentration in rat plasma; format: in vivo; conditions: entacapone = 1.00, adult male Wistar rats, COMT inhibitor dosed orally with levodopa+carbidopa
Procedure: Levodopa concentration in rat plasma was determined substantially as described in e.g. Kim, T. K. et al. European Journal of Pharmaceutical Sciences, 38 (2009) 525. The studies were performed in adult male Wistar rats. The COMT inhibitor was dosed orally over a range of doses and several sampling time points were chosen between 0 min and 300 min after drug administration (levodopa+carbidopa and COMT inhibitor). Blood samples were collected by cardiac puncture under CO2 anaesthesia into pre-cooled K2EDTA tubes and kept on ice until the separation of plasma by centrifugation. For levodopa analysis, 75 μl of separated plasma was pipetted without delay into pre-cooled polypropylene tubes containing a conserving agent. All the samples were stored at −80° C. nominal until analyzed. Plasma levels of levodopa were determined by LC-MS/MS (or HPLC). Standard pharmacokinetic methods were used to evaluate the concentration—time data by non-compartmental analysis modeling. The analyses were performed using WinNonlin® Professional v. 5.0.1.

[2] = molecular target: T1, recombinant human soluble COMT (S-COMT) (Homo sapiens, UniProt P21964); experiment: COMT inhibiting activity in vitro, Assay 1 (fluorescence plate reader); format: biochemical; conditions: Assay 1: 12 nM S-COMT, 60 min preincubation at 37° C., substrate esculetin, Morrison equation
T1 sequence (P21964 1-221 isoform P21964-2): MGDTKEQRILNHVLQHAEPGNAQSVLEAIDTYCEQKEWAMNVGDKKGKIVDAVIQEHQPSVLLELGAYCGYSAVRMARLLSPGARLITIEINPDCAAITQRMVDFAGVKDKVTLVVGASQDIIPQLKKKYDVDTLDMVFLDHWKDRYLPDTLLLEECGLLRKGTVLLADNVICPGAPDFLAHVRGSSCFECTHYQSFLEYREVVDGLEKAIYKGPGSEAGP
Procedure: (§1) The inhibitory potency was determined by measuring recombinant human soluble COMT (S-COMT) activity at various compound concentrations. COMT activity measurements were performed according to the method published in Kurkela, M. et al. Analytical Biochemistry, 331 (2004) 198 with slight modifications according to Assay 1 or Assay 2 described below.
Recombinant human S-COMT (12 nM) was preincubated with the COMT inhibitor and 400 μM S-adenosyl-L-methionine in 100 mM Na2HPO4 buffer, pH 7.4, containing 5 mM MgCl2 for 60 min at 37° C. The reaction was started with the addition of the substrate esculetin for a final concentration of […] and the production of O-methylated esculetin was followed with the FlexStation fluorescence plate reader ([…], USA) using excitation at 355 nm and emission at 460 nm. The inhibitor dissociation constant, Ki, of the studied compounds was calculated using the Morrison equation, which takes the tight binding inhibition into account (Copeland, R. A. Evaluation of Enzyme Inhibitors in Drug Discovery. A Guide for Medicinal Chemists and Pharmacologists, John Wiley & Sons, Inc., Hoboken, N.J., 2005, pp. 185-187):
[formula] wherein v0 and vi are the reaction velocities in the absence and presence, respectively, of the inhibitor, E is the active enzyme concentration, and I is the inhibitor concentration. The data were analyzed with GraphPad Prism version 4.00 software (GraphPad Software, San Diego, Calif., USA). Assay 2

[3] = molecular target: T1, recombinant human soluble COMT (S-COMT); experiment: COMT inhibiting activity in vitro, Assay 2 (HPLC with fluorescence detection); format: biochemical; conditions: Assay 2: 0.8 nM S-COMT, esculetin 0.5 μM, Morrison equation
Procedure: as §1
Recombinant human S-COMT (0.8 nM) was incubated with the COMT inhibitor and 200 μM S-adenosyl-L-methionine in 100 mM Na2HPO4 buffer, pH 7.4, containing 5 mM MgCl2 for 30 min at 37° C. The reaction was started with the addition of esculetin for a final concentration of 0.5 μM and the reaction mixture with total volume of 200 μl was incubated for 30 min at 37° C. The reaction was stopped with 20 μl of 4 M HClO4 and the precipitated protein was removed by Sirocco protein precipitation plate (centrifuged at 4° C. for 10 min at 3000 g). O-Methylated esculetin was detected by Waters HT Alliance HPLC setup with Waters 474 fluorescence detector (Ex […], Em 460 nm, Gain 100). The analytes were separated isocratically using 0.1 M Na2HPO4, 20 mM citric acid, 0.15 mM EDTA, pH 3.2, in 40% methanol as mobile phase and Waters Spherisorb ODS2 (3 μm, 4.6 mm×100 mm) column. O-Methylated esculetin concentrations were calculated based on the standard curve and the Ki values were calculated using the Morrison equation as in Assay 1.

Row | SMILES | Ki [2] | Ki [3] | other results
1 | N#Cc1cc(O)c(O)c(C#N)c1Br [Example 1, 2-Bromo-4,5-dihydroxyisophthalonitrile] | – | – | Relative levodopa concentration [1]: 1.65
2 | N#Cc1cc(O)c(O)c(C#N)c1-c1cccs1 [Example 5, 4,5-Dihydroxy-2-(thiophen-2-yl)isophthalonitrile] | 0.84 nM | – | –
3 | N#Cc1cc(O)c(O)c(C#N)c1-c1ccco1 [Example 6, 2-(Furan-2-yl)-4,5-dihydroxyisophthalonitrile] | – | – | Relative levodopa concentration [1]: 1.64
4 | CC(C)S(=O)(=O)c1ccc(-c2c(C#N)cc(O)c(O)c2C#N)cc1 [Example 23, 3,4-Dihydroxy-4′-(isopropylsulfonyl)biphenyl-2,6-dicarbonitrile] | 0.19 nM | – | Relative levodopa concentration [1]: 1.34
5 | N#Cc1cc(O)c(O)c(C#N)c1-c1cccc(C(=O)O)c1 [Example 26, 2′,6′-Dicyano-3′,4′-dihydroxybiphenyl-3-carboxylic acid] | 0.12 nM | – | –
6 | CC(C)(C)/C=C/c1c(C#N)cc(O)c(O)c1C#N [Example 28, (E)-2-(3,3-Dimethylbut-1-enyl)-4,5-dihydroxyisophthalonitrile] | – | – | Relative levodopa concentration [1]: 2.69
7 | N#Cc1cc(O)c(O)c(C#N)c1-c1ccc(CCC(=O)O)cc1 [Example 32, 3-(2′,6′-Dicyano-3′,4′-dihydroxybiphenyl-4-yl)propanoic acid] | 2 nM | – | –
8 | N#Cc1cc(O)c(O)c(C#N)c1-c1ccc(Cl)c(Cl)c1 [Example 38, 3′,4′-Dichloro-3,4-dihydroxybiphenyl-2,6-dicarbonitrile] | 9.5 nM | – | –
9 | N#Cc1cc(O)c(O)c(C#N)c1Cc1ccccc1 [Example 45, 2-Benzyl-4,5-dihydroxyisophthalonitrile] | 8.2 nM | – | –
10 | N#Cc1cc(O)c(O)c(C#N)c1Cc1ccc(F)cc1 [Example 55, 2-(4-Fluorobenzyl)-4,5-dihydroxyisophthalonitrile] | – | – | Relative levodopa concentration [1]: 1.31
11 | N#Cc1cc(O)c(O)c(C#N)c1Cc1ccccc1F [Example 60, 2-(2-Fluorobenzyl)-4,5-dihydroxyisophthalonitrile] | – | – | Relative levodopa concentration [1]: 1.13
12 | N#Cc1cc(O)c(O)c(C#N)c1C1=CCOCC1 [Example 74, 2-(3,6-Dihydro-2H-pyran-4-yl)-4,5-dihydroxyisophthalonitrile] | 2 nM | – | –
13 | N#Cc1cc(O)c(O)c(C#N)c1/C=C/C(=O)O [Example 76, (E)-3-(2,6-Dicyano-3,4-dihydroxyphenyl)acrylic acid] | 3.3 nM | – | –
14 | CC(C)=Cc1c(C#N)cc(O)c(O)c1C#N [Example 87, 4,5-Dihydroxy-2-(2-methylprop-1-enyl)isophthalonitrile] | – | – | Relative levodopa concentration [1]: 1.51
15 | C=Cc1c(C#N)cc(O)c(O)c1C#N [Example 89, 4,5-Dihydroxy-2-vinylisophthalonitrile] | 2 nM | – | –
16 | C=CCc1c(C#N)cc(O)c(O)c1C#N [Example 92, 2-Allyl-4,5-dihydroxyisophthalonitrile] | – | – | Relative levodopa concentration [1]: 1.42
17 | CCN(CC)C(=O)c1cccc(-c2c(C#N)cc(O)c(O)c2C#N)c1 [Example 100, 2′,6′-Dicyano-N,N-diethyl-3′,4′-dihydroxybiphenyl-3-carboxamide] | 6.5 nM | – | –
18 | N#Cc1cc(O)c(O)c(C#N)c1Cc1ccc(C(=O)O)cc1 [Example 118, 4-(2,6-Dicyano-3,4-dihydroxybenzyl)benzoic acid] | – | 0.33 nM | –
19 | Cc1ccc(/C=C/c2c(C#N)cc(O)c(O)c2C#N)cc1 [Example 121, (E)-4,5-Dihydroxy-2-(4-methylstyryl)isophthalonitrile] | 18 nM | – | –
20 | N#Cc1cc(O)c(O)c(C#N)c1-c1ccc2cc(O)ccc2c1 [Example 122, 4,5-Dihydroxy-2-(6-hydroxynaphthalen-2-yl)isophthalonitrile] | 1.5 nM | – | –

Row | SMILES | Ki [2] | Ki [3] | other results
21 | COC(=O)CCc1ccc(Sc2c(C#N)cc(O)c(O)c2C#N)cc1 [Example 144, Methyl 3-(4-(2,6-dicyano-3,4-dihydroxyphenylthio)phenyl)propanoate] | – | 0.7 nM | –
22 | Cc1ccc(-c2c(C#N)cc(O)c(O)c2C#N)cc1 [Example 152, 3,4-Dihydroxy-4′-methylbiphenyl-2,6-dicarbonitrile] | – | 1.6 nM | –
23 | N#Cc1cc(O)c(O)c(C#N)c1Cc1ccc(CCC(=O)O)cc1 [Example 153, 3-(4-(2,6-Dicyano-3,4-dihydroxybenzyl)phenyl)propanoic acid] | – | 0.4 nM | –
24 | N#Cc1cc(O)c(O)c(C#N)c1Cc1ccc(C(F)(F)F)cc1 [Example 154, 4,5-Dihydroxy-2-(4-(trifluoromethyl)benzyl)isophthalonitrile] | – | 1.3 nM | –
25 | Cc1ccc([S+]([O-])c2c(C#N)cc(O)c(O)c2C#N)cc1 (stereo not shown) [Example 156, 4,5-Dihydroxy-2-(p-tolylsulfinyl)isophthalonitrile] | – | 0.26 nM | –
26 | CCc1ccc(Sc2c(C#N)cc(O)c(O)c2C#N)cc1 [Example 158, 2-(4-Ethylphenylthio)-4,5-dihydroxyisophthalonitrile] | – | 0.53 nM | –
27 | N#Cc1cc(O)c(O)c(C#N)c1Sc1ccc(Cl)cc1 [Example 159, 2-(4-Chlorophenylthio)-4,5-dihydroxyisophthalonitrile] | – | 0.94 nM | –
28 | Cc1ccccc1Sc1c(C#N)cc(O)c(O)c1C#N [Example 160, 4,5-Dihydroxy-2-(o-tolylthio)isophthalonitrile] | – | 0.7 nM | –
29 | COC(=O)c1ccc(Sc2c(C#N)cc(O)c(O)c2C#N)cc1 [Example 161, Methyl 4-(2,6-dicyano-3,4-dihydroxyphenylthio)benzoate] | – | 0.3 nM | –
30 | N#Cc1cc(O)c(O)c(C#N)c1Sc1ccc(CC(=O)O)cc1 [Example 164, 2-(4-(2,6-Dicyano-3,4-dihydroxyphenylthio)phenyl)acetic acid] | – | 0.2 nM | –
31 | COc1ccc(Sc2c(C#N)cc(O)c(O)c2C#N)cc1 [Example 167, 4,5-Dihydroxy-2-(4-methoxyphenylthio)isophthalonitrile] | – | 0.3 nM | –
32 | N#Cc1cc(O)c(O)c(C#N)c1Sc1ccncc1 [Example 171, 4,5-Dihydroxy-2-(pyridin-4-ylthio)isophthalonitrile] | – | 0.9 nM | –
33 | N#Cc1cc(O)c(O)c(C#N)c1Sc1cccc(C(=O)O)c1 [Example 172, 3-(2,6-Dicyano-3,4-dihydroxyphenylthio)benzoic acid] | – | 0.2 nM | –
34 | N#Cc1cc(O)c(O)c(C#N)c1Sc1ccc2ccccc2c1 [Example 174, 4,5-Dihydroxy-2-(naphthalen-2-ylthio)isophthalonitrile] | – | 0.5 nM | –
35 | CC(=O)c1ccc(Oc2c(C#N)cc(O)c(O)c2C#N)cc1 [Example 177, 2-(4-Acetylphenoxy)-4,5-dihydroxyisophthalonitrile] | – | 0.8 nM | –
36 | Cc1ccc(Oc2c(C#N)cc(O)c(O)c2C#N)c(C)c1 [Example 180, 2-(2,4-Dimethylphenoxy)-4,5-dihydroxyisophthalonitrile] | – | 0.5 nM | –
37 | N#Cc1cc(O)c(O)c(C#N)c1CCCO [Example 187, 4,5-Dihydroxy-2-(3-hydroxypropyl)isophthalonitrile] | 3.2 nM | – | –
38 | N#Cc1cc(O)c(O)c(C#N)c1N1CCOCC1 [Example 191, 4,5-Dihydroxy-2-morpholinoisophthalonitrile] | 2.9 nM | – | –
39 | Cc1ccc(S(=O)(=O)c2c(C#N)cc(O)c(O)c2C#N)cc1 [Example 209, 4,5-Dihydroxy-2-tosylisophthalonitrile] | – | 0.1 nM | –
